The test relates to HIV-1 (HTLV-IIIB). The test is classed as cell-based. The conditions noted are these: at 1-100 μg/ml; in these assays (HTLV-IIIB, HTLV-IIIRF, HIV-2ROD infection of MT-2 cells). The text has this: The activity of the melanins for inhibiting replication of HIV can be confirmed by known assays, including particularly the assay described by Montefiori, et al., J. Clin. Microb., 26:231-235, 1988. That assay utilizes human T-cell lymphotropic virus type I-immortalized MT-2 cells as targets for infection. Cytolysis can be quantitated by vital dye uptake of poly-L-lysine-adhered cells as an endpoint for infection. The MT-cell assay has now been accepted as a standard screening test.
Antiviral activities of the synthetic water-soluble melanins derived as described in Example I from L-tyrosine, L-dopa, dopamine, serotonin, norepinephrine, L-dopa/glutathione, and L-dopa/ L-cysteine were measured in 96 well microdilution plates as described (Montefiori, et al., J. Clin. Microbiol. 26:231-235, 1988). Briefly, 2-fold serial dilutions of melanins were made in triplicate in a total of 100 ul growth medium (RPMI-1640 containing 12% heat-inactivated fetal bovine serum and 50 ug gentamicin/ml) per well. MT-2 cells (5×10^4) in 100 ul of growth medium were added to each well and incubated for 10 minutes. […] Viral-induced cytopathic effect (CPE) was quantitated 3 days later by vital dye (neutral red) uptake in remaining viable cells. […]

L-tyrosine: the antiviral activity entry is on record as “no antiviral activity”.
On to L-dopa, for which the antiviral activity entry is listed as “no antiviral activity”.

Values taken from patent US5057325A, “Method of inhibiting replication of HIV with water-soluble melanins” (Vanderbilt University, priority 1990, dated 1991).
